“Also recorded” adds a separate entry of the source.
Legend:
[1] = cited from earlier work
primary lung fibroblasts = assay: IL-6 ELISA on supernatant of LPS-stimulated primary lung fibroblasts; assay type: cell-based, mouse; conditions: 1 μg/mL LPS + 5 μM 4μ8C, 6 hours
Procedure: (§1) Tissue culture conditions and Reagents. HEK293 cells, primary lung fibroblasts and BMDM were isolated and maintained as described (41-43). Cells were treated with LPS (Sigma, L4391), 4μ8C (Tocris, 4479), tunicamycin (Tocris, 3516), PD98059 (Medchem Express HY-12028), JSH-23 (Medchem Express, Hy-13982), SP600125 (Medchem Express, HY-12041), cycloheximide (Tocris, 0970), lactacystin (Cayman Chemical, 70980), chloroquine (Fisher, ICN19391925), and STF 083010 (Medchem Express, HY-15845) as described in the text.
(§2) ELISA. ELISA for IL-6 and TNFα were performed as previously described (Remick et al., 2002). Antibodies used were: anti-mouse IL-6 MP5-20F3 (Biolegend, 504501) 0.5 μg/mL; biotin anti-mouse IL-6 MP5-32C11 (Biolegend, 504601) 1 μg/mL; anti-mouse TNFα (R&D systems, AF-410-NA) 0.5 μg/mL; biotin anti-mouse TNFα (R&D systems, BAF410) 0.25 μg/mL.
Tissue culture conditions and Reagents. HEK293 mTLR4/MD2/CD14 (Invivogen, 293-mtlr4md2cd14), primary lung fibroblasts, and BMDM were isolated and maintained as described (Zhang et al., 2008; Seluanov et al., 2010). […]

[2] = target: T1, IRE1 endonuclease activity (Mus musculus, UniProt Q9EQY0); assay: XBP1 splicing ratio by qPCR in BMDM; assay type: cell-based; conditions: WT and S1R KO BMDM, 100 ng/mL LPS + 5 μM 4μ8C, 6 hours
T1 construct: We prepared bone marrow derived macrophages (BMDM) from WT and S1R KO mice; endogenous in cells; host or cells: primary mouse bone marrow derived macrophages (WT and S1R KO, C57BL/6J background)
T1 sequence (Q9EQY0 21-977): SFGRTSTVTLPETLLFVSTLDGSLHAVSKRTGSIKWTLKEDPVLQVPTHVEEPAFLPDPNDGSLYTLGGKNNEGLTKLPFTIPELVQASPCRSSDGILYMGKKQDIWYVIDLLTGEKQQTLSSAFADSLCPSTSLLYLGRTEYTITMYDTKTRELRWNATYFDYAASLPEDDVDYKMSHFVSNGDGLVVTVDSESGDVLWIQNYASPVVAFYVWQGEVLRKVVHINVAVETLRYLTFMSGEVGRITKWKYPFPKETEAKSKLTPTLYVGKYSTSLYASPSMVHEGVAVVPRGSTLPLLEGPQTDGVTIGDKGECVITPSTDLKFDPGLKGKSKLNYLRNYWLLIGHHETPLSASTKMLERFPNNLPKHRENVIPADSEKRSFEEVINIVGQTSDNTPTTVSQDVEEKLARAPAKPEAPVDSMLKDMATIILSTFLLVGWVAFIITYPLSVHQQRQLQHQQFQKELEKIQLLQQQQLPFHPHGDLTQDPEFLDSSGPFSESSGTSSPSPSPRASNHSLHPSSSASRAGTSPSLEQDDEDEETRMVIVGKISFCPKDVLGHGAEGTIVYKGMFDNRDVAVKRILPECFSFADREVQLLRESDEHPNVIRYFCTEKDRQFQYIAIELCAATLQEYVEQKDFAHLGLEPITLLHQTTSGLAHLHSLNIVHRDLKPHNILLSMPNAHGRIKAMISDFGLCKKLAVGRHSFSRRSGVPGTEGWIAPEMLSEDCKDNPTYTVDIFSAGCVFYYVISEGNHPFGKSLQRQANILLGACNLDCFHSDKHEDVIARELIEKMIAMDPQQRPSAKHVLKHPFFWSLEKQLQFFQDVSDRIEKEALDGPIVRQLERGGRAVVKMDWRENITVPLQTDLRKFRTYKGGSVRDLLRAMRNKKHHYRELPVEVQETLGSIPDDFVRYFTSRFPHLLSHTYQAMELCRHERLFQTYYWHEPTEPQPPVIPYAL
Procedure: as §1
(§3) cDNA synthesis and quantitative RT-PCR. Total RNA was extracted using an ISOLATE II RNA (Bioline, 52073) and cDNA synthesis was performed with the ISCRIPT™ kit (Bio-Rad, 170-8891). TaqMan Probes were obtained from Life Technologies (GAPDH: Mm99999915_g1; IL-6: Mm00446190_m1; pro-IL-1β: Mm00434228_m1; TNFα: Mm00443258_m1). Primers for IRE1 detection were GCACGUGAAUUGAUAGAGA (SEQ ID NO: 10) and UCUCUAUCAAUUCACGUGC (SEQ ID NO: 11). Primers for the detection of XBP1 were previously published (Lipson et al., 2008). RT-PCR was performed as described previously (Gaultier et al., 2009).
(§4) cDNA synthesis and quantitative PCR. Total RNA was extracted using an ISOLATE II RNA kit (Bioline, 52073) and cDNA synthesis was performed with the SENSIFAST™ cDNA synthesis kit (Bioline, BIO-65054). TaqMan Probes were obtained from Thermo Fisher (GAPDH: Mm99999915_g1; IL-6: Mm00446190_m1; pro-IL-1β: Mm00434228_m1; IL10: Mm004396). Primers for the detection of XBP1, IL-8, and actin were previously published (Vandesompele et al., 2002; Kumar & Valdivia, 2008; Girard et al., 2009). qPCR was performed as described previously (Gaultier et al., 2008).

BMDM [3] = assay: IL-6 ELISA on supernatant of LPS-stimulated BMDM; assay type: cell-based, mouse; conditions: 1 μg/mL LPS, 6 hours; 20 μM JSH-23, 20 μM PD98059, 1 μM SP600125, 5 μM 4μ8C
Procedure: as §1, §2
Tissue culture conditions and Reagents. HEK293 mTLR4/MD2/CD14 (Invivogen, 293-mtlr4md2cd14), primary lung fibroblasts, and BMDM were isolated and maintained as described (Zhang et al., 2008; Seluanov et al., 2010). Cells and animals were treated with LPS (Sigma, L4391), 4μ8C (Tocris, 4479), APY-29 (Medchem Express HY-17537), PD98059 (Medchem Express HY-12028), JSH-23 (Medchem Express, HY-13982), SP600125 (Medchem Express, HY-12041), STF 083010 (Medchem Express, HY-15845), Fluvoxamine (Medchem Express, HY-B0103A), and Ceftriaxone (Hospira, NDC: 0409-7337-01), as described in the text.
as §2, with “TNF-α” for “TNFα”

BMDM [4] = assay: qPCR for pro-inflammatory cytokine expression in LPS-treated BMDM; assay type: cell-based, mouse; conditions: 100 ng/mL LPS + 5 μM 4μ8C, 6 hours
Procedure: as §3, §4

IRE1 transcript = assay: qPCR for IRE1 expression in BMDM; assay type: cell-based, mouse; conditions: S1R KO BMDM, 5 μM 4μ8C
Procedure: as §3

[5] = pre-clinical tests; cited from earlier work
[6] = tested on: transgenic (3×Tg-AD) mice; conditions: cited from earlier work

Cc1cc(=O)oc2c(C=O)c(O)ccc12 [4μ8C, 7-Hydroxy-4-methyl-2-oxo-2H-1-benzopyran-8-carboxaldehyde]
Half-life in vivo [1]: short half-life | IL-6 / cytokine secretion by lung fibroblasts upon LPS stimulation (primary lung fibroblasts): marked decrease of cytokine secretion | LPS induced XBP1 splicing [2]: completely abolished | Difference in LPS-induced IL-6 secretion between WT and S1R KO BMDM (BMDM [3]): rescued IL-6 secretion in S1R KO cells to the levels observed in control BMDM | Potentiated cytokine expression in S1R KO BMDM relative to WT (qPCR) (BMDM [4]): inhibits potentiation of cytokine expression in S1R KO BMDM; also recorded: reversed IL-6 expression in KO cells to the amount observed in WT BMDM | IL-1β expression (qPCR) (BMDM [4]; WT and S1R KO BMDM): decreases | IL-6 expression (qPCR) (BMDM [4]; WT and S1R KO BMDM): decreases | IRE1 transcript levels (IRE1 transcript): restores IRE1 transcript levels to those observed in WT BMDM

CN(C)CC1COC(c2ccccc2)(c2ccccc2)C1.Cl (stereo not shown) [ANAVEX® 1-41, tetrahydro-N,N-dimethyl-5,5-di phenyl-3-furanmethanamine hydrochloride]
Neuroprotective benefits [5]: significant neuroprotective benefits

CC1SC2(CCN(C)CC2)CN1C(=O)CCc1c[nH]c2ccccc12 (stereo not shown) [ANAVEX® 3-71, 1-(2,8-dimethyl-1-thia-3,8-diazaspiro(4.5)dec-3-yl)-3-(1H-indol-3-yl)propan-1-one]
Effect on major Alzheimer's hallmarks (cognitive deficits, amyloid and tau pathologies) [6]: highly effective in very small doses

Reference: US20220023291A1, “COMPOSITIONS AND METHODS FOR REGULATING INFLAMMATION” (University of Virginia Patent Foundation, priority 2018, published 2022)
